Experimental findings from PubChem BioAssay (NCI) are described below.

Each structure is given as a SMILES string.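 Compound exposure: 48 hours, 5 concentrations, 96-well plates. TGI: concentration producing complete growth inhibition.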

Assay in all cases: DTP human tumour cell line panel, 48 h
Test [1] concerns HL-60(TB) leukemia.
The subject of test [2] is RPMI-8226 leukemia.
Test [3] deals with SW-620 colon.
The subject of test [4] is ACHN renal.
The test system of test [5] is SNB-75 CNS.
In test [6] the test system is EKVX NSCLC.
Test [7] concerns DU-145 prostate.
Test [8] relates to SF-295 CNS.
The test system of test [9] is M14 melanoma.
Test [10] deals with SF-268 CNS.
Test [11] concerns UO-31 renal.
Test [12] concerns MDA-N.
The test system of test [13] is NCI-H23 lung.
Test [14] deals with KM12 colon.
In test [15] the test system is OVCAR-8 ovarian.
Test [16] concerns HOP-62 NSCLC.
Test [17] concerns CCRF-CEM leukemia.
Test [18] deals with HT29 colon.

Consider `CC(=O)Nc1ccc(C2SCc3nc4ccccc4n32)cc1` (stereo unspecified), for which the TGI in test [1], in test [2], in test [3], in test [4], in [5] and in test [6] was greater than 100 µM each time. Moreover, the TGI in [7], in test [8], in test [9], in [10], in test [11] and in [12] was greater than 100 µM in each case. Further, the TGI in test [13], in test [14], in test [15], in test [16], in test [17] and in test [18] was greater than 100 µM throughout.
On to `Cc1cc(C)c(-n2c(-c3ccc(Br)cc3)cs/c2=N\N=C2C=C(C(C)(C)C)C(=O)C(C(C)(C)C)=C2)c(C)c1`, for which the TGI (as a rule, the concentration at which net growth stops) was greater than 100 µM in test [1]; greater than 100 µM in [2]; greater than 100 µM in [3]; greater than 100 µM in [4]; 57.1 µM in test [5]; greater than 100 µM in test [6]. Moreover, the TGI in [7], in [8], in test [9], in test [10], in test [11] and in test [12] was greater than 100 µM in each case. The TGI was greater than 100 µM in test [13]; greater than 100 µM in test [14]; greater than 100 µM in test [15]; greater than 78.6 µM in [16]; greater than 100 µM in test [17]; greater than 100 µM in test [18].
